The values below come from article PMC8041433 (Environmental Health Perspectives, 2021).

In test [1] the target is AChE in SH-SY5Y spheroids (Homo sapiens, UniProt P22303). The test can be described thus: cell-based. The following applies: potency (IC50).
For test [2], the target named is AChE in neural stem cells (Homo sapiens, UniProt P22303). The experiment in a line: cell-based.
Test [3] addresses T1, recombinant human AChE (Homo sapiens, UniProt P22303).
Test [4] concerns the target T1, recombinant human AChE. The test can be described thus: biochemical. The format is biochemical. As to conditions: for AC50: AC50 (uM).
Test [5] addresses AChE in SH-SY5Y cells (Homo sapiens, UniProt P22303). The test can be described thus: cell-based.
Test [6] deals with T1, recombinant human AChE. The experiment in a line: biochemical.
For test [7], the target named is AChE in neural stem cell spheroids (Homo sapiens, UniProt P22303). The test can be described thus: cell-based. As to conditions: potency (IC50).
Chain of AChE in neural stem cell spheroids (P22303 32-614): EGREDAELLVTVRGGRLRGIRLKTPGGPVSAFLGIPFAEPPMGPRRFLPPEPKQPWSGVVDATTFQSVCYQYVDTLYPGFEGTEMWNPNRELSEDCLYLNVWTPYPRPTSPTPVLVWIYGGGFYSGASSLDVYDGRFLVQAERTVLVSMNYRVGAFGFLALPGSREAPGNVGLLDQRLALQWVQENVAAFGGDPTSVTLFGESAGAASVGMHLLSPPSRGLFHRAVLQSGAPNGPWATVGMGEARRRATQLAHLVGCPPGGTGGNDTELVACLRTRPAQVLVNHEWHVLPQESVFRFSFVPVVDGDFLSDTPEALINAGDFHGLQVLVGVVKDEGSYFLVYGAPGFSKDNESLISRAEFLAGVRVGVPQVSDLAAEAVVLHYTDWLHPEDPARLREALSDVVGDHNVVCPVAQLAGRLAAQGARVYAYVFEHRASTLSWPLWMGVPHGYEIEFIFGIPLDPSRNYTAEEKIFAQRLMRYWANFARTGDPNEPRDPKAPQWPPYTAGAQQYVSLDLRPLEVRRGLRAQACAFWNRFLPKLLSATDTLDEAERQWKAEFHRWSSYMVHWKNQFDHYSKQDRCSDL
Test [8] deals with T1, recombinant human AChE. The experiment in a line: biochemical. This is another data set of the same source.
The target of test [9] is T1, recombinant human AChE. The experiment in a line: biochemical. This is another data set of the same source.
[10] abbreviates: potency (IC50), SH-SY5Y cells monolayer.
[11] abbreviates: Neural stem cell spheroid (24 h).
Setting [12] is: Neural stem cell spheroid (48 h).
[13] abbreviates: potency (IC50), Enzyme with microsomes.

Values joined by “and” are separate entries in the source; they are usually repeats but may differ in a detail not shown here. Equal values may be shown once. Read-outs that look alike come from different tables or passages of the source.
Throughout, for IR or R: key: Reversible (R); Irreversible (IR); ND, not detected in enzyme-based AChE inhibition assay from current study.

Chain of AChE in SH-SY5Y spheroids (P22303 32-614): as above
Chain of AChE in SH-SY5Y cells (P22303 32-614): as above
T1 sequence (P22303 32-614): as above
Chain of AChE in neural stem cells (P22303 32-614): as above

Broadly, the IC50 is the concentration at which inhibition is half-maximal. One may read the AC50 as the concentration at which the activity in the assay is half-maximal. Turning to `O=C(O)/C=C/C(=O)O.O=C1c2ccccc2C(=O)N1CCc1noc(-c2ccc(CN3CCCCCC3)s2)n1` [PharmaGSID_48172], the IC50 is 17.5 ± 16.2 µM in [1] (SH-SY5Y spheroids (24 h)); 14.5 ± 1.67 µM in [1] (SH-SY5Y spheroids (48 h)); 36.3 µM in test [2]; 6.51 µM and 8.19 µM in test [5] (IC50 (uM)); 16.3 ± 1.86 µM in test [5] (setting [10]); 23.1 µM in test [6] (IC50 (uM)). Further, the IC50 amounted to 11.1 ± 1.52 µM in [6] (potency (IC50), Enzyme); 17.1 ± 3.86 µM in test [7] (setting [11]); 20.5 µM in test [7] (setting [12]); 21.2 ± 1.44 µM in test [8]; 58 µM in [9] (IC50 (uM)); 24.7 ± 1.61 µM in test [9] (setting [13]). Moreover, the “CC-v2 (curve classes)” value is recorded as -2.2 in test [3], -1.1 in test [5] and -2.1 in test [6]. For the same compound, the Efficacy is reported as -51.694 in [3] and -99.042 in [6]. In test [4], the “IR or R” value was “R”. The concentration at half-maximal activity (AC50) in [4] (activity_5) was 22.9 µM and 36.3 µM and 32.3 µM; in [4] (activity_10), 20.4 µM and 36.3 µM and 28.8 µM; in test [4] (activity_60), 32.3 µM and 40.7 µM and 22.9 µM.
For the compound `CNC(=O)Oc1cccc2c1OC(C)(C)O2` [Bendiocarb], the IC50 in test [1] (SH-SY5Y spheroids (24 h)) is 44.7 ± 19.4 µM; in [1] (SH-SY5Y spheroids (48 h)), 54.1 ± 7.44 µM; in [2], 46.2 ± 3.12 µM; in test [5] (setting [10]), 1.07 ± 0.06 µM; in test [6] (potency (IC50), Enzyme), 0.51 ± 0.03 µM; in [7] (setting [11]), 45.2 ± 10.3 µM. Moreover, the IC50 in test [7] (setting [12]) came to 47.1 µM; in [8], 0.92 ± 0.06 µM; in [9] (setting [13]) it was 0.88 µM. For the same compound, the “CC-v2 (curve classes)” value in test [3], in test [5] and in [6] was -1.1 throughout. Moreover, the “IR or R” value in [4] is on record as “R”. Also, in test [4], the AC50 is 70.3 µM (2×) and 78.9 µM and 88.5 µM (2×) and 55.9 µM and 62.7 µM.
Consider `CNC(=O)Oc1cccc2c1OC(C)(C)C2` [Carbofuran], for which the IC50 was 0.64 ± 0.97 µM in [1] (SH-SY5Y spheroids (24 h)); 0.27 ± 0.05 µM in test [1] (SH-SY5Y spheroids (48 h)); 2.19 ± 0.61 µM in [2]; 0.0894 µM and 0.725 µM and 0.647 µM and 0.1 µM and 0.458 µM in test [5] (IC50 (uM)); 0.29 ± 0.05 µM in test [5] (setting [10]); 0.09 µM in test [6] (potency (IC50), Enzyme). Further, the IC50 in [7] (setting [11]) was found to be 2.44 ± 0.61 µM; in test [7] (setting [12]) it was 4.82 ± 0.66 µM; in [8], 0.23 ± 0.03 µM; in [9] (setting [13]), 0.22 ± 0.04 µM. The “CC-v2 (curve classes)” value in test [3], in test [5] and in test [6] was -1.1 each time. In addition, in test [4], the AC50 is 993 nM (2×) and 1.11 µM (2×) and 885 nM and 125 nM and 314 nM and 157 nM.
In the case of `CS/C(C)=N\OC(=O)N(C)SN(C)C(=O)O/N=C(\C)SC` [Thiodicarb], the IC50 in [1] (SH-SY5Y spheroids (24 h)) is 1.58 ± 0.57 µM; in test [1] (SH-SY5Y spheroids (48 h)), 2.62 ± 0.47 µM; in [2] it was 5.43 ± 0.92 µM; in test [5] (IC50 (uM)), 1.42 µM and 1.26 µM and 1.12 µM; in [5] (setting [10]) it was 2.81 ± 0.32 µM; in test [6] (potency (IC50), Enzyme) it was 7.03 µM. In addition, the IC50 came out at 7.63 ± 1.05 µM in [7] (setting [11]), 7.8 ± 2.18 µM in test [7] (setting [12]), 3.97 ± 0.46 µM in [8] and 5.48 ± 1.36 µM in [9] (setting [13]). Further, the “CC-v2 (curve classes)” value was -2.1 in [3], -1.1 in test [5] and -1.1 in test [6]. Moreover, the Efficacy is -115.189 in test [3] and -104.676 in [6]. Moreover, the AC50 in [4] was 4.44 µM and 3.95 µM (2×) and 3.14 µM and 6.27 µM and 5.59 µM and 1.57 µM and 1.98 µM.
On to `O=C(Nc1cccc(C2=NCCN2)c1)Nc1cccc(C2=NCCN2)c1` [Imidocarb dipropionate, reference compound], for which the IC50 in test [1] (SH-SY5Y spheroids (24 h)) is 6.56 ± 6.21 µM; in [1] (SH-SY5Y spheroids (48 h)), 7.41 ± 0.48 µM; in [2], 19.3 µM; in test [5] (IC50 (uM)) it was 3.79 µM and 4.25 µM; in test [5] (setting [10]), 5.07 ± 0.64 µM; in [6] (IC50 (uM)), 10.7 µM. Also, the IC50 in [6] (potency (IC50), Enzyme) worked out at 18.5 ± 10.1 µM; in [7] (setting [11]) it was 19.4 ± 2.22 µM; in [7] (setting [12]), 19.3 µM; in test [8], 25.7 ± 5.81 µM; in [9] (setting [13]), 27.6 ± 5.16 µM. In addition, the “CC-v2 (curve classes)” value is 4 in [3], -1.1 in [5] and -2.1 in test [6]. Also, the Efficacy is recorded as 0 in test [3] and -76.607 in test [6]. Also, the “IR or R” value in test [4] is “R”. For the same compound, the AC50 in test [4] was 15.3 µM (2×) and 17.2 µM and 19.3 µM and 10.9 µM and 13.7 µM and 21.7 µM and 12.2 µM.
